The NIST ThermoML archive (doi:10.1021/acs.jced.5b00562)

Conditions: for specific volume: Gas, isochoric method; for mass density: Liquid, Vibrating tube method

F/C=C(\F)C(F)(F)F [(Z)-1,2,3,3,3-pentafluoro-1-propene]
Conditions | mass density [kg/m3] | specific volume [m3/kg]
323.15 K, 169.7 kPa | – | 0.116
323.15 K, 245.6 kPa | – | 0.079
323.15 K, 1296 kPa | 1172.9 | –
323.15 K, 7500 kPa | 1226.8 | –
323.15 K, 10001 kPa | 1243.3 | –
323.15 K, 12499 kPa | 1257.6 | –
323.15 K, 15000 kPa | 1270.8 | –
323.15 K, 17499 kPa | 1282.9 | –
323.15 K, 19999 kPa | 1294 | –
323.15 K, 22500 kPa | 1304.4 | –
323.15 K, 25001 kPa | 1314.1 | –
323.15 K, 27500 kPa | 1323.2 | –
323.15 K, 30001 kPa | 1331.8 | –
323.15 K, 32501 kPa | 1340 | –
323.15 K, 35001 kPa | 1347.7 | –
323.16 K, 466.1 kPa | – | 0.04
323.16 K, 1499 kPa | 1175.1 | –
323.16 K, 2000 kPa | 1180.3 | –
323.16 K, 2502 kPa | 1185.5 | –
323.16 K, 4998 kPa | 1207.9 | –
328.07 K, 566.8 kPa | – | 0.033
328.11 K, 360.1 kPa | – | 0.054
328.14 K, 669.2 kPa | – | 0.027
328.15 K, 172.6 kPa | – | 0.116
328.15 K, 249.7 kPa | – | 0.079
328.15 K, 475.1 kPa | – | 0.04
333.1 K, 365.4 kPa | – | 0.054
333.1 K, 578.2 kPa | – | 0.033
333.13 K, 682.7 kPa | – | 0.027
333.15 K, 174.9 kPa | – | 0.116
333.15 K, 253.9 kPa | – | 0.079
333.15 K, 483.9 kPa | – | 0.04
333.15 K, 1502 kPa | 1124.9 | –
333.15 K, 1999 kPa | 1132 | –
333.15 K, 2500 kPa | 1138.6 | –
333.15 K, 5000 kPa | 1166.8 | –
333.15 K, 7500 kPa | 1189.4 | –
333.15 K, 10000 kPa | 1208.6 | –
333.15 K, 12500 kPa | 1225.4 | –
333.15 K, 15000 kPa | 1240.4 | –
333.15 K, 17500 kPa | 1255 | –
333.15 K, 20000 kPa | 1266.6 | –
333.15 K, 22500 kPa | 1278.1 | –
333.15 K, 25003 kPa | 1288.8 | –
333.15 K, 27500 kPa | 1298.8 | –
333.15 K, 29999 kPa | 1308.2 | –
333.15 K, 32500 kPa | 1317.8 | –
333.15 K, 35000 kPa | 1326.3 | –
338.08 K, 589.4 kPa | – | 0.033
338.08 K, 696.3 kPa | – | 0.027
338.14 K, 371.5 kPa | – | 0.054
338.15 K, 177.9 kPa | – | 0.116
338.15 K, 257.7 kPa | – | 0.079
338.15 K, 492.8 kPa | – | 0.04
343.08 K, 600.4 kPa | – | 0.033
343.09 K, 377.8 kPa | – | 0.054
343.13 K, 710 kPa | – | 0.027
343.15 K, 181 kPa | – | 0.116
343.15 K, 262.4 kPa | – | 0.079
343.15 K, 501.5 kPa | – | 0.04
343.15 K, 1800 kPa | 1070 | –
343.15 K, 2000 kPa | 1074.1 | –
343.15 K, 2500 kPa | 1083.8 | –
343.15 K, 5001 kPa | 1121.1 | –
343.15 K, 7500 kPa | 1149.2 | –
343.15 K, 10001 kPa | 1172 | –
343.15 K, 12500 kPa | 1191.5 | –
343.15 K, 15000 kPa | 1208.5 | –
343.15 K, 17500 kPa | 1223.8 | –
343.15 K, 20000 kPa | 1237.6 | –
343.15 K, 22500 kPa | 1250.3 | –
343.15 K, 27500 kPa | 1273.2 | –
343.15 K, 30000 kPa | 1283.5 | –
343.15 K, 32500 kPa | 1293.3 | –
343.15 K, 35000 kPa | 1302.5 | –
343.16 K, 25000 kPa | 1262.3 | –
348.06 K, 611.4 kPa | – | 0.033
348.07 K, 383.7 kPa | – | 0.054
348.14 K, 723.7 kPa | – | 0.027
348.15 K, 183.8 kPa | – | 0.116
348.15 K, 266.6 kPa | – | 0.079
348.15 K, 510.2 kPa | – | 0.04
353.05 K, 390.1 kPa | – | 0.054
353.11 K, 622.8 kPa | – | 0.033
353.13 K, 737.3 kPa | – | 0.027
353.14 K, 20000 kPa | 1209 | –
353.15 K, 186.6 kPa | – | 0.116
353.15 K, 270.7 kPa | – | 0.079
353.15 K, 518.9 kPa | – | 0.04
353.15 K, 5000 kPa | 1070.7 | –
353.15 K, 7500 kPa | 1106.5 | –
353.15 K, 10000 kPa | 1134 | –
353.15 K, 12500 kPa | 1156.8 | –
353.15 K, 15000 kPa | 1176.3 | –
353.15 K, 17500 kPa | 1193.5 | –
353.15 K, 22500 kPa | 1223 | –
353.15 K, 25000 kPa | 1235.9 | –
353.15 K, 27500 kPa | 1247.9 | –
353.15 K, 30000 kPa | 1259 | –
353.15 K, 32502 kPa | 1269.4 | –
353.16 K, 2500 kPa | 1016.9 | –
353.16 K, 35001 kPa | 1279.2 | –
358.11 K, 397.3 kPa | – | 0.054
358.15 K, 189.5 kPa | – | 0.116
358.15 K, 274.5 kPa | – | 0.079
358.15 K, 527.6 kPa | – | 0.04
358.15 K, 750.7 kPa | – | 0.027
358.17 K, 633.7 kPa | – | 0.033
363.13 K, 764 kPa | – | 0.027
363.14 K, 278.7 kPa | – | 0.079
363.14 K, 644.4 kPa | – | 0.033
363.16 K, 192.3 kPa | – | 0.116
363.16 K, 536.1 kPa | – | 0.04
363.29 K, 404 kPa | – | 0.054
368.03 K, 409.8 kPa | – | 0.054
368.1 K, 777.4 kPa | – | 0.027
368.15 K, 194.3 kPa | – | 0.116
368.15 K, 544.7 kPa | – | 0.04
368.16 K, 282.9 kPa | – | 0.079
368.16 K, 655.3 kPa | – | 0.033
